Patent US12552802B2, “Fused [7,5] bicyclic pyrazole derivatives and methods of use thereof for the treatment of herpesviruses” (Merck Sharp & Dohme LLC, priority 2020, dated 2026)

Key:
VZV = assay: Viral qPCR assay, VZV in MeWo cells; type: cell-based, varicella zoster virus; conditions: Human alphaherpesvirus 3, ~72 hrs, viral genome copies by qPCR, read-out: VZV MEWO Cell (IC50)
Protocol: (§1) MRC5 cells, Vero cells, and MeWo cells were obtained from ATCC and were maintained at 37° C./5% CO2/90% relative humidity in Minimal Essential Medium with 10% fetal bovine serum, […] L-glutamine, 100 units/ml penicillin and 100 ug/ml streptomycin. Assay plates were prepared by dispensing compounds dissolved in DMSO into wells of 384 well collagen-coated plates using an ECHO acoustic dispenser. Each compound was tested in a 10-point, serial 3-fold dilution. Controls included uninfected cells and infected cells treated only with DMSO. Assays were initiated by mixing selected cells, in suspension, with virus, and dispensing 50 μl/well infected cells to pre-plated compounds. Plates were incubated at 37° C./5% CO2/90% relative humidity for ˜72 hrs to permit genomic replication, and infected cells were lysed by the addition of an equal volume of lysis buffer (10 mM Tris-HCl, pH8, 50 mM KCl, 2 mM MgCl2, 0.45% NP-40, 0.45% Tween-20, and 100 μg/ml proteinase K). […] Levels of a viral gene and of the cellular control, PPIA (Thermo Fisher Assay ID=Hs04194521_s1), were measured in separate 10 μL qPCR assays using TaqMang Gene Expression Master Mix (Applied Biosystems), and an 7900HT Fast Real-Time PCR System with 384-Well Block Module. 7-point, serial 10-fold dilutions of a plasmid standard were run on each plate to generate a standard curve, and genome copies numbers were calculated by plotting experimental Ct onto linear regression of the standard curve. […] Calculated % effects were fit using a 4-parameter algorithm, and EC50 was reported.
(§2) MRC5 cells, Vero cells, and MeWo cells were obtained from ATCC and were maintained at 37° C./5% CO2/90% relative humidity in Minimal Essential Medium with 10% fetal bovine serum, […] L-glutamine, 100 units/ml penicillin and 100 ug/ml streptomycin. […] Levels of a viral gene were measured in 10 μL qPCR assays using TaqMang Gene Expression Master Mix (Applied Biosystems), and an 7900HT Fast Real-Time PCR System with 384-Well Block Module. […]

[1] = target: T1, varicella zoster virus (VZV) DNA polymerase (Varicella-zoster virus, UniProt P09252); assay: VZV polymerase assay; type: biochemical; conditions: polymerase 0.4 nM, AlphaLISA detection
T1 construct: made in house; host or cells: SF21 insect cells (baculovirus vector)
T1 sequence (P09252 whole entry): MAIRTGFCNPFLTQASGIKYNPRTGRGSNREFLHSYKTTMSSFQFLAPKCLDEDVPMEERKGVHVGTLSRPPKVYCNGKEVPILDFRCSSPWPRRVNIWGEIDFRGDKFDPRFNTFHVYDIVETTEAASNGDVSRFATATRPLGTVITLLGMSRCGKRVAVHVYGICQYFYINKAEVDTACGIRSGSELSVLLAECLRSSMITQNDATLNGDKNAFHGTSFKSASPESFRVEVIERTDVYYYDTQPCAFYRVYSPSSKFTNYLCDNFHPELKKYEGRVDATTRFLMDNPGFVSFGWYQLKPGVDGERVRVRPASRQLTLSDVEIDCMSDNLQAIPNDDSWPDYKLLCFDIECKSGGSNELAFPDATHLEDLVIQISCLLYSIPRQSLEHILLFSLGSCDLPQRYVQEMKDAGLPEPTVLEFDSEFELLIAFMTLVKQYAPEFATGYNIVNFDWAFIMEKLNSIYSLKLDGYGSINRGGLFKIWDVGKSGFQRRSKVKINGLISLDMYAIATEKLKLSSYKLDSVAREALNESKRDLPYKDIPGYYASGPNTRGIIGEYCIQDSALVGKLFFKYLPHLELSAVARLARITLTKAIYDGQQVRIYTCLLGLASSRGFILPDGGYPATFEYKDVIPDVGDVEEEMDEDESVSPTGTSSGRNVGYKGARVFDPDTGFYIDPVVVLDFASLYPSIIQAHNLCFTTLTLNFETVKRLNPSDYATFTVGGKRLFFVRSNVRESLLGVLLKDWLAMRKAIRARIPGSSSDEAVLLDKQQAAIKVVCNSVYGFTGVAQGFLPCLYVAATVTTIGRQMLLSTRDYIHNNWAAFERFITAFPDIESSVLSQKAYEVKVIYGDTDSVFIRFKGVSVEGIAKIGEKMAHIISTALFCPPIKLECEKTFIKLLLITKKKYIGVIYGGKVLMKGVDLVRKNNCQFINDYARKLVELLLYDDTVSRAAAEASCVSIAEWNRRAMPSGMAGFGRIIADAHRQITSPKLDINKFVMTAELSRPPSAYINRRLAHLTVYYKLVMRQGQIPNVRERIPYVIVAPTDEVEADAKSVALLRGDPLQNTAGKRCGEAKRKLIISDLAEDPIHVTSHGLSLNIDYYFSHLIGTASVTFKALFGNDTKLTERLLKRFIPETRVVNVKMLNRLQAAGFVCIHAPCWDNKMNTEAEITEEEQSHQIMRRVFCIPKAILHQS
Protocol: (§3) Human cytomegalovirus (HCMV) and varicella zoster virus (VZV) DNA polymerases were expressed via baculovirus vector in SF21 cells and purified. Heterodimeric nucleic acid substrate used in the herpesvirus polymerase reactions was generated by annealing a 59-mer template to a 17-mer digoxigenin-labeled primer. Polymerase (HCMV final concentration of 0.2 nM; VZV final concentration of 0.4 nM) was combined with an inhibitor compound or DMSO in assay buffer (10 mM HEPES, pH 7.5, 25 mM KCl, 25 mM NaCl, 5 mM MgCl2, 5% glycerol, 0.67 mg/ml bovine serum albuminutes (albuminate?), and 1 mM tris(2-carboxyethyl)phosphine), and this mixture was pre-incubated for 30 minutes at room temperature in 384-well microtiter plates. The polymerization reaction was initiated by the addition of template/primer substrate (final concentration: 1.6 nM), and dNTPs (final concentration: 24 nM dCTP, 24 nMdGTP, 16 nM dATP, 16 nM dTTP, and 0.8 nM biotin-dUTP). After 60 minutes incubation at 37° C., reactions were terminated with quench buffer (25 mM HEPES pH 7.5, 100 mM NaCl, 0.25% Tween-20, 12 mM EDTA, and 1 mg/ml bovine serum albumin). Incorporation of biotinylated UTP was detected with 2.5-5 ug/ml anti-DIG AlphaLISA acceptor beads and 5-10 ug/ml streptavidin AlphaLISA donor beads (Perkin Elmer). Compound effects were normalized to the window defined by the controls (DMSO only and pre-quenched wells), and were fit using a 4-parameter algorithm to report an IC50.

HSV2 = assay: Viral qPCR assay, HSV2 in Vero cells; type: cell-based; conditions: Human alphaherpesvirus 2, ~72 hrs, viral genome copies by qPCR, read-out: HSV2 VERO Cell (EC50)
Protocol: as §1, §2

[2] = target: T2, Human cytomegalovirus (HCMV) DNA polymerase (Human cytomegalovirus, UniProt P08546); assay: HCMV polymerase assay; type: biochemical; conditions: polymerase 0.2 nM, AlphaLISA detection; read-out: CMV (IC50)
T2 construct: made in house; host or cells: SF21 insect cells (baculovirus vector)
T2 sequence (P08546 whole entry): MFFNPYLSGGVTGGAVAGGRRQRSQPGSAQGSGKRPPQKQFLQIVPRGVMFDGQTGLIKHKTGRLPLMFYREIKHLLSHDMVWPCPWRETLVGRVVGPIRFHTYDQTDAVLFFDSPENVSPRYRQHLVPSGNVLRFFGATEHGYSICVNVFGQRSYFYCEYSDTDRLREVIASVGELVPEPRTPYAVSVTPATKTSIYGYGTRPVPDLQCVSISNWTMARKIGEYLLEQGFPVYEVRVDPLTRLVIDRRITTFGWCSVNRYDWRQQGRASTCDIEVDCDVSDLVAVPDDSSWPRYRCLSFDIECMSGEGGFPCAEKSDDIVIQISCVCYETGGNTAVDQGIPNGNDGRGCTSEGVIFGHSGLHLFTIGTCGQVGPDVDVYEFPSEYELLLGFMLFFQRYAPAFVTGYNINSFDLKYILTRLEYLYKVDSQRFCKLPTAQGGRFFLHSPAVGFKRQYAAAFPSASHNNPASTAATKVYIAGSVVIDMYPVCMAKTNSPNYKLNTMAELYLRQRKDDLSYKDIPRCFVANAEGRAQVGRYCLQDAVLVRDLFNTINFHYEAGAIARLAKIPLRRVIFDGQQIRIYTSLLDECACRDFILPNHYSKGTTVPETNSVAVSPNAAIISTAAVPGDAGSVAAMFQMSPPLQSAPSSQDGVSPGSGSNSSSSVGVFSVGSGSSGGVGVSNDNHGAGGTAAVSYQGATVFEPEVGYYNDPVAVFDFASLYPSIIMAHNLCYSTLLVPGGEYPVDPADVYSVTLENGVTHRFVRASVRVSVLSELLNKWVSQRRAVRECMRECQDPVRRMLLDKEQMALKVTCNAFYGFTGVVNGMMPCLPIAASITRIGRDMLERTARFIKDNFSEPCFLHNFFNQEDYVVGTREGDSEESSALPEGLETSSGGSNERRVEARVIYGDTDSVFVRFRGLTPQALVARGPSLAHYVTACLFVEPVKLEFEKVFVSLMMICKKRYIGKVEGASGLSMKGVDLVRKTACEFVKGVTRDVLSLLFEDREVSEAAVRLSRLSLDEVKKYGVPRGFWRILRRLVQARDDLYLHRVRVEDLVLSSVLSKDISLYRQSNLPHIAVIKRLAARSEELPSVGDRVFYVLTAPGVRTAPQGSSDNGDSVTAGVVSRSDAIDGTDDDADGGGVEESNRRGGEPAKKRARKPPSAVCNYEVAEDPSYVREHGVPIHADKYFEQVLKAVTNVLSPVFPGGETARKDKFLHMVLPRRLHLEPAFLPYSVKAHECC
Protocol: as §3

HSV-1 Strain F = assay: Viral qPCR assay, HSV1 in Vero cells; type: cell-based; conditions: Human alphaherpesvirus 1, ~72 hrs, viral genome copies by qPCR, read-out: HSV1 VERO Cell (EC50)
Protocol: as §1, §2

HCMV Strain AD169 = assay: Viral qPCR assay, CMV in MRC5 cells; type: cell-based, Human cytomegalovirus; conditions: Human betaherpesvirus 5, AD169, ~72 hrs, viral genome copies by qPCR, read-out: CMV MRC5 Cell (EC50)
Protocol: as §1, §2

Row | Compound | IC50 (VZV) [µM] | IC50 [1] [µM] | EC50 (HSV2) [µM] | IC50 [2] [µM] | EC50 (HSV-1 Strain F) [µM] | EC50 (HCMV Strain AD169) [µM]
1 | Cn1nc(C(=O)NCc2ccc(Cl)cc2)c2c1CCN(C[C@H]1COC(=O)N1)CC2 [Compound 1] | 1.96 | 0.26 | 7.97 | 0.802 | 3.29 | 3.72
2 | Cc1nnn(C)c1CN1CCc2c(C(=O)NCc3ccc(Cl)cc3)nn(C)c2CC1 [Compound 3] | 1.44 | 0.373 | 7.82 | 0.805 | 4.58 | 12.4
3 | Cn1nc(C(=O)NCc2ccc(Cl)cc2)c2c1CCN(C[C@H]1CCC(=O)N1)CC2 [Compound 2] | 2.99 | 0.251 | 5.68 | 0.762 | 3.27 | 8.68
